In US10995099B2, “Compounds and their uses as ACC inhibitors” (NANJING RUIJIE PHARMATECH CO., LTD., priority 2017, dated 2021):
Like-named read-outs stand apart in the source and are kept apart here.

Experiments:
ACC2 = ACC2 (Homo sapiens (Human), UniProt O00763); assay: In vitro ACC inhibition assay (ADP-Glo), ACC2; type: biochemical
Description: (§1) Compounds of the present invention were evaluated in an in vitro ACC inhibition assay as described by Harwood, et al, 2003, the entirety of which is incorporated herein by reference.
(§2) In Vitro Acetyl-CoA Carboxylase (ACC) Inhibition Assay
(§3) An exemplary procedure for the in vitro ACC inhibition assay, which can be used to determine the inhibitory action of compounds of the invention toward either ACC1 or ACC2, follows. The ADP-Glo™ Kinase Assay kit from Promega was used. The ADP-Glo™ Kinase Assay is a luminescent ADP detection assay to measure enzymatic activity by quantifying the amount of ADP produced during an enzyme reaction. The assay is performed in two steps; first, after the enzyme reaction, an equal volume of ADP-Glo™ Reagent is added to terminate the reaction and deplete the remaining ATP. Second, the Kinase Detection Reagent is added to simultaneously convert ADP to ATP and allow the newly synthesized ATP to be measured using a luciferase/luciferin reaction. Luminescence can be correlated to ADP concentrations by using an ATP-to-ADP conversion curve. The detailed procedure is as follows. 50 μL of the compound being tested (600 uM in DMSO) was added to a 384-well dilution plate. The compound was diluted 1:3 in succession in DMSO for each row for 11 wells. 0.5 μL ACC2 working solution was added to 384-well white Optiplate assay plate. 0.5 μL diluted compound solution in each column from step 2 to assay plate, each row containing 2 replicates. […] The plates were incubated at room temperature for 15 minutes. 5 μL substrate working solution was added to each well to initiate reaction. Final ACC2 reaction concentrations consist of: 5 nM ACC2, 20 μM ATP, 20 μM acetyl-CoA, 12 mM NaHCO3, 0.01% Brij35, 2 mM DTT, 5% DMSO, test compound concentrations: 30 μM, 10 μM, 3.33 μM, 1.11 μM, 0.37 μM, 0.123 μM, 0.0411 μM, 0.0137 μM, 0.00457 μM, 0.00152 μM, and 0.00051 μM. Plates were incubated at room temperature for 60 minutes. 10 μL ADP glo reagent was added. Plates were incubated at room temperature for 40 minutes. 20 μL kinase detection reagent was added. Plates were incubated at room temperature for 40 minutes, then read on a Perkin Elmer EnVision 2104 plate reader for luminescence as Relative Light Units (RLU).
(§4) Data for each concentration, as well as the positive and negative controls were averaged, and the standard deviation calculated. Percent inhibition was calculated by the formula: 100×(average negative control-compound)/(average negative control-average positive control). The IC50 for each compound was calculated by fitting the data with a non-linear regress ion equation: Y=Bottom+(Top−Bottom)/(1+10((Log IC50−X* HillSlope)), where X is the log of compound concentration and Y is percent inhibition.

HepG2 = assay: EC50 in HepG2; type: cell-based
ACC1 = ACC1 (Homo sapiens (Human), UniProt Q13085); assay: In vitro ACC inhibition assay (ADP-Glo), ACC1; type: biochemical
Description: as §1, §2, §3, §4

[1] = 5 nM ACC2, 20 μM ATP, 20 μM acetyl-CoA, read-out: IC50 (μM) ACC2
[2] = ND630 versus RJ compounds, isoform not given, read-out: IC50 (μM) ND630/RJ-cmps(%)
[3] = Homo sapiens, HepG2, read-out: EC50 (μM) HepG2
[4] = HepG2, read-out: EC50 (μM) HepG2
[5] = ND630 versus RJ compounds, read-out: EC50 (μM) ND630/RJ-cmps(%)

Sequence of ACC2 (O00763 whole entry, species assumed): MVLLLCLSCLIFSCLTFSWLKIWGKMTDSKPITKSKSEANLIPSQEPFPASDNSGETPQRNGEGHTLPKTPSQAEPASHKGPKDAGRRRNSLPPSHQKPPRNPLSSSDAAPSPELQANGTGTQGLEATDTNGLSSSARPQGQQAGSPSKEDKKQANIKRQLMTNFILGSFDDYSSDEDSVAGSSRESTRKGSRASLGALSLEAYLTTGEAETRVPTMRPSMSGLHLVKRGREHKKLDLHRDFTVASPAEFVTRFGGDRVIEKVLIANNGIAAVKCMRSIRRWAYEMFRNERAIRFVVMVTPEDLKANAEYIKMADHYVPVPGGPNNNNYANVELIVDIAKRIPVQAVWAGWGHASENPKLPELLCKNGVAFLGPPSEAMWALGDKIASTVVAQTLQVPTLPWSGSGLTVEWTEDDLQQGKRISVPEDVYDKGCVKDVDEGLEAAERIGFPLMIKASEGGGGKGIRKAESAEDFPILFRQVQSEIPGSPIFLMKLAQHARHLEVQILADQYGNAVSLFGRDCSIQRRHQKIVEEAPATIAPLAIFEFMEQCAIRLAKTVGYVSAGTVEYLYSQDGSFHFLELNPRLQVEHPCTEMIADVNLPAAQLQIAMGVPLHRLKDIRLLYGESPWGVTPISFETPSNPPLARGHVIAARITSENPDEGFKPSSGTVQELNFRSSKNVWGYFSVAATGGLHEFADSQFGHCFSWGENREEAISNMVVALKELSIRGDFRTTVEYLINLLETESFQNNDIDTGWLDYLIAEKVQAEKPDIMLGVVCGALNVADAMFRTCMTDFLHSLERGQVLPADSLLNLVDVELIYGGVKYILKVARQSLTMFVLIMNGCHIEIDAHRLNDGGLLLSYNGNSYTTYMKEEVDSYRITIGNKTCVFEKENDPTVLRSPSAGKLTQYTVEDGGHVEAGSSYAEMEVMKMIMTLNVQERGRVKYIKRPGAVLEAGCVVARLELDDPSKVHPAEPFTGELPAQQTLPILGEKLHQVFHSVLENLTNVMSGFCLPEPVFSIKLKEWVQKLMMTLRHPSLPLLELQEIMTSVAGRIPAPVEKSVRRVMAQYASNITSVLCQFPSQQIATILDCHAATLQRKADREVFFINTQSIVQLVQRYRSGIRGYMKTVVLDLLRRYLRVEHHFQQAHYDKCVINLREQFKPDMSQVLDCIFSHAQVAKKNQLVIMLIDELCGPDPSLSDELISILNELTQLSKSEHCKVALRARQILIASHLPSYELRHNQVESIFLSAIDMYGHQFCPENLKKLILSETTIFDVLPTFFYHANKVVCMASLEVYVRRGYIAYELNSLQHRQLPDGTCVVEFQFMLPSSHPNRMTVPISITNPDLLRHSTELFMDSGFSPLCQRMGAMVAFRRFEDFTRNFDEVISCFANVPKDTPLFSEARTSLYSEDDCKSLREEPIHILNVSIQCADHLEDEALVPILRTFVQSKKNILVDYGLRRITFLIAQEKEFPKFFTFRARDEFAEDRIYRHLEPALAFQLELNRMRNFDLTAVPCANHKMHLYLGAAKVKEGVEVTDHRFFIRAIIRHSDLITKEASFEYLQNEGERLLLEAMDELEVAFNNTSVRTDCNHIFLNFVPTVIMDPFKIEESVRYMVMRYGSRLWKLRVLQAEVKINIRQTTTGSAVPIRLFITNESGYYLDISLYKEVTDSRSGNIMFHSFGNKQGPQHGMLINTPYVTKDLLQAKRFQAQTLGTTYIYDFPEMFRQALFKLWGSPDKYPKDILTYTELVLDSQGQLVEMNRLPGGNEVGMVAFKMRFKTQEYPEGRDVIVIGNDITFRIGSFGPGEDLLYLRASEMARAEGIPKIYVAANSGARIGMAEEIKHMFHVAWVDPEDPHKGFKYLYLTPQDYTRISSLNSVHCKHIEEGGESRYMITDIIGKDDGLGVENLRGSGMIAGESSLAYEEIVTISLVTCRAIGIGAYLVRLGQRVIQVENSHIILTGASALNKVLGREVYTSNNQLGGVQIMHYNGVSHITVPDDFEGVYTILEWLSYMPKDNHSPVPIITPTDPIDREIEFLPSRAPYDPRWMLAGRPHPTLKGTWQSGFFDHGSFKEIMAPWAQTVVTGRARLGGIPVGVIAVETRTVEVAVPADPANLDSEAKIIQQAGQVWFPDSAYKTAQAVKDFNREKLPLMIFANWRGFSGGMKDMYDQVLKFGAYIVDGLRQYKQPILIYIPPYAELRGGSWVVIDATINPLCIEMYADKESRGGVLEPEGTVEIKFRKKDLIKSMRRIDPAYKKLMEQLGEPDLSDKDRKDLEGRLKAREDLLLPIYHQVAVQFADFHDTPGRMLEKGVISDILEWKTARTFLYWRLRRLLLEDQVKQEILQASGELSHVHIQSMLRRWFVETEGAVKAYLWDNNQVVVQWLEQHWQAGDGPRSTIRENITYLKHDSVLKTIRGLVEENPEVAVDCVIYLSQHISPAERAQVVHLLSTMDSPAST

| Structure (SMILES) | IC50 (ACC2; [1]) | IC50 (ACC2; [2]) | EC50 (HepG2; [3]) | EC50 (HepG2; Homo sapiens, ND630 versus RJ compounds, read-out: EC50 (μM) ND630/RJ-cmps(%)) | EC50 (HepG2; [4]) | EC50 (HepG2; [5]) | IC50 (ACC1) |
| --- | --- | --- | --- | --- | --- | --- | --- |
| COc1ccccc1[C@H](Cn1c(=O)n(C(C)(C)C(=O)O)c(=O)c2c(C)c(-c3nnco3)sc21)OC1CCOCC1 [Example 9] | 0.1 to 1 µM | 0.005 to 0.01 µM |  |  | > 1 µM | > 1 µM |  |
| COc1ccccc1C(Cn1c(=O)n(C(C)(C)C(=O)O)c(=O)c2cc(C)c(-c3ncco3)cc21)OC1CCOCC1 (stereo not shown) [Example 11] | > 1 µM | 0.005 to 0.01 µM |  |  |  | 0.01 to 0.1 µM |  |
| COc1ccccc1C(Cn1c(=O)n(C(C)(C)C(=O)O)c(=O)c2cc(C)c(Br)cc21)OC1CCOCC1 (stereo not shown) [Example 12] | > 1 µM | 0.005 to 0.01 µM |  |  |  | 0.01 to 0.1 µM |  |
| COc1ccccc1C(O)Cn1c(=O)n(C(C)(C)C(=O)O)c(=O)c2cc(C)c(-c3ncco3)cc21 (stereo not shown) [Example 13] | > 1 µM | 0.005 to 0.01 µM |  |  |  | 0.01 to 0.1 µM |  |
| COc1ccccc1[C@H](Cn1c(=O)n(C2(C(=O)O)CC2)c(=O)c2c(C)csc21)OC1CCOCC1 [Example 17] | > 1 µM | 0.005 to 0.01 µM |  |  |  |  |  |
| COc1ccccc1C(Cn1c(=O)n(C2(CC(=O)N3CCOCC3)CC2)c(=O)c2c(C)c(Br)sc21)OC1CCOCC1 (stereo not shown) [Example 23] | 0.1 to 1 µM | 0.003 to 0.005 µM |  |  |  | 0.1 to 1 µM |  |
| COCc1sc2c(c1C)c(=O)n(C1(C(=O)O)CCCC1)c(=O)n2C[C@H](CC1CCOCC1)c1ccccc1OC [Example 27] | > 1 µM | 0.003 to 0.005 µM |  |  |  | 0.1 to 1 µM |  |
| COc1ccccc1[C@@H](Cn1c(=O)n(C2(C(=O)O)CC2)c(=O)c2c(C)c(-c3ncco3)sc21)OC1CCOCC1 [Example 28] | 0.1 to 1 µM | 0.003 to 0.005 µM |  |  |  | 0.1 to 1 µM |  |
| COc1ccccc1[C@@H](Cn1c(=O)n(C2(C(=O)O)CC2)c(=O)c2c(C)c(Br)sc21)OC1CCOCC1 [Example 32] | 0.1 to 1 µM | 0.003 to 0.005 µM |  |  |  | 0.1 to 1 µM |  |
| COc1ccccc1[C@H](Cn1c(=O)n(C2(C(=O)O)CCC2)c(=O)c2c(C)c(CN)sc21)OC1CCOCC1 [Example 34] | > 1 µM | 0.003 to 0.005 µM |  |  |  | 0.1 to 1 µM |  |
| COc1ccccc1[C@H](Cn1c(=O)n(C2(C(=O)O)CC2)c(=O)c2cc(-c3ncco3)ccc21)OC1CCOCC1 [Example 39] | > 1 µM | 0.005 to 0.01 µM |  |  | 0.1 to 1 µM | 0.01 to 0.1 µM |  |
| COc1ccccc1[C@H](Cn1c(=O)n(C2(C(=O)O)CC2)c(=O)c2c(C)c(-n3cncn3)sc21)OC1CCOCC1 [Example 56] | 0.1 to 1 µM | 0.005 to 0.01 µM |  |  |  |  |  |
| CNC(=O)C1(n2c(=O)c3cc(Br)sc3n(C[C@H](OC3CCOCC3)c3ccccc3OC)c2=O)CC1 [Example 57] | 0.1 to 1 µM | 0.005 to 0.01 µM |  |  | 0.1 to 1 µM |  |  |
| COc1ccccc1[C@H](Cn1c(=O)n(C(C)(C)C(=O)OC(C)(C)C)c(=O)c2c(C)c(-c3ncco3)sc21)OC1CCOCC1 [Example 66] | 0.01 to 0.1 µM | > 0.01 µM |  |  |  |  | 0.001 to 0.01 µM |
| COc1ccccc1[C@H](Cn1c(=O)n(C2(C(=O)O)CC2)c(=O)c2c(C)c(-c3cnco3)sc21)OC1CCOCC1 [Example 80] | 0.01 to 0.1 µM | 0.005 to 0.01 µM |  |  | > 1 µM | > 1 µM |  |
| COc1ccccc1C(Cn1c(=O)n(C2(CC(=O)O)CC2)c(=O)c2c(C)c(-c3ncco3)sc21)OC1CCOCC1 (stereo not shown) [Example 82] | 0.01 to 0.1 µM | 0.005 to 0.01 µM |  |  | 0.01 to 0.1 µM | > 1 µM |  |

The remaining lines, values ahead:

| IC50 (ACC2; [1]) | IC50 (ACC2; [2]) | EC50 (HepG2; [3]) | EC50 (HepG2; Homo sapiens, ND630 versus RJ compounds, read-out: EC50 (μM) ND630/RJ-cmps(%)) | EC50 (HepG2; [4]) | EC50 (HepG2; [5]) | IC50 (ACC1) | Structure (SMILES) |
| --- | --- | --- | --- | --- | --- | --- | --- |
| 0.01 to 0.1 µM | 0.005 to 0.01 µM | 0.01 to 0.1 µM | > 1 µM |  |  |  | COc1ccccc1C(Cn1c(=O)n(C2(C(=O)O)CC2)c(=O)c2c(C)c(-c3ncco3)sc21)OC1CCOCC1 (stereo not shown) [Example 3, 1-[1-[2-(2-methoxyphenyl)-2-tetrahydropyran-4-yloxy-ethyl]-5-methyl-6-oxazol-2-yl-2,4-dioxo-thieno[2,3-d]pyrimidin-3-yl]cyclopropanecarboxylic acid] |
| 0.01 to 0.1 µM | 0.005 to 0.01 µM | 0.01 to 0.1 µM |  |  |  |  | COc1ccccc1C(Cn1c(=O)n(C2(C(=O)O)CC2)c(=O)c2c(C)c(Br)sc21)OC1CCOCC1 (stereo not shown) [Example 4, 1-(6-bromo-1-(2-(2-methoxyphenyl)-2-(tetrahydro-2H-pyran-4-yloxy)ethyl)-5-methyl-2,4-dioxo-1,2-dihydrothieno[2,3-d]pyrimidin-3(4H)-yl)cyclopropanecarboxylic Acid] |
| 0.01 to 0.1 µM | 0.005 to 0.01 µM |  |  | > 1 µM | > 1 µM |  | COc1ccccc1[C@H](Cn1c(=O)n(C(C)(C)C(=O)O)c(=O)c2c(C)c(-c3ncco3)sc21)OC1CCOCC1 [Example 8] |
| 0.01 to 0.1 µM | 0.005 to 0.01 µM |  |  | 0.1 to 1 µM | > 1 µM |  | COc1ccccc1C(Cn1c(=O)n(C(C)(C)C(=O)O)c(=O)c2c(C)c(Br)sc21)OC1CCOCC1 (stereo not shown) [Example 10] |
| < 0.01 µM | 0.003 to 0.005 µM |  |  |  | 0.1 to 1 µM |  | COc1ccccc1C(Cn1c(=O)n(C2(C(=O)O)CCCC2)c(=O)c2c(C)c(-c3ncco3)sc21)OC1CCOCC1 (stereo not shown) [Example 25] |
| < 0.01 µM | 0.003 to 0.005 µM |  |  |  | 0.1 to 1 µM |  | COc1ccccc1C(Cn1c(=O)n(C2(C(=O)O)CCC2)c(=O)c2c(C)c(-c3ncco3)sc21)OC1CCOCC1 (stereo not shown) [Example 26] |
| < 0.01 µM | 0.005 to 0.01 µM |  |  | 0.1 to 1 µM | > 1 µM |  | COc1ccccc1[C@H](Cn1c(=O)n(C2(C(=O)O)CC2)c(=O)c2c(C)c(-n3cccn3)sc21)OC1CCOCC1 [Example 45] |
| < 0.01 µM | 0.003 to 0.005 µM |  |  | 0.1 to 1 µM | > 1 µM |  | COc1ccccc1C(Cn1c(=O)n(C2(C(N)=O)CCCC2)c(=O)c2c(C)c(Br)sc21)OC1CCOCC1 (stereo not shown) [Example 48] |
| < 0.01 µM | 0.003 to 0.005 µM |  |  | 0.1 to 1 µM | 0.1 to 1 µM |  | COc1ccccc1[C@H](Cn1c(=O)n(C2(C(=O)O)CC2)c(=O)c2c(C)c(-n3nccn3)sc21)OC1CCOCC1 [Example 49] |
| 0.01 to 0.1 µM | 0.003 to 0.005 µM |  |  |  | 0.1 to 1 µM |  | CNC(=O)C1(n2c(=O)c3c(C)c(Br)sc3n(CC(OC3CCOCC3)c3ccccc3OC)c2=O)CCCC1 (stereo not shown) [Example 50] |
| 0.01 to 0.1 µM | > 0.01 µM |  |  |  |  | 0.01 to 0.05 µM | COc1ccccc1[C@H](Cn1c(=O)n(C2(CC(=O)O)CC2)c(=O)c2c(C)c(Br)sc21)OC1CCOCC1 [Example 59] |
| 0.01 to 0.1 µM | > 0.01 µM |  |  |  |  | 0.01 to 0.05 µM | COc1ccccc1[C@H](Cn1c(=O)n(C2(CC(N)=O)CC2)c(=O)c2c(C)c(Br)sc21)OC1CCOCC1 [Example 60] |
| 0.01 to 0.1 µM |  |  |  | > 1 µM |  |  | COCCNC(=O)CC1(n2c(=O)c3c(C)c(-c4ncco4)sc3n(CC(OC3CCOCC3)c3ccccc3OC)c2=O)CC1 (stereo not shown) [Example 65] |
